The test system of the data set is rodent carcinogenicity bioassays, tumor incidence. The experiment in a line: CCRIS carcinogenicity studies. A digest of the protocol: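 Archive of carcinogenicity, mutagenicity, tumor promotion and tumor inhibition results drawn from journals, NCI reports and other sources, expert-reviewed; covers 1985-2011 and is no longer updated.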

The source made the active and inactive calls. The rule behind the calls is not given here.

`O=c1ccc2ccccc2o1`: the carcinogen call is “active; positive” (Species: MOUSE, Strain/Sex: B6C3F1/FEMALE, Route: GAVAGE, Dose: 0, 50, 100, 200 MG/KG BW IN CORN OIL 1/D 5 D/WK FOR 103 WK (STUDY DURATION: 103 WK), Dose: 0, 50, 100, 200 MG/KG BW IN CORN OIL 1/D 5 D/WK FOR 103 WK (STUDY DURATION: 103 WK), Tumor Site: Type of Lesion: LIVER: HEPATOCELLULAR ADENOMA, HEPATOCELLULAR ADENOMA OR CARCINOMA, LUNG: ALVEOLAR/BRONCHIOLAR ADENOMA, ALVEOLAR/BRONCHI); “active; positive” (Species: MOUSE, Strain/Sex: B6C3F1/MALE, Route: GAVAGE, Dose: 0, 50, 100, 200 MG/KG BW IN CORN OIL 1/D 5 D/WK FOR 103 WK (STUDY DURATION: 103 WK), Dose: 0, 50, 100, 200 MG/KG BW IN CORN OIL 1/D 5 D/WK FOR 103 WK (STUDY DURATION: 103 WK), Tumor Site: Type of Lesion: LUNG: ALVEOLAR/BRONCHIOLAR ADENOMA, ALVEOLAR/BRONCHIOLAR ADENOMA OR CARCINOMA); “inactive; negative” (Species: MOUSE, Strain/Sex: CD-1/FEMALE, Route: ORAL, Dose: 0, 300, 1000, 3000 PPM IN DIET FOR THE DURATION OF STUDY (STUDY DURATION: 109 WK), Dose: 0, 300, 1000, 3000 PPM IN DIET FOR THE DURATION OF STUDY (STUDY DURATION: 109 WK)); “inactive; negative” (Species: MOUSE, Strain/Sex: CD-1/MALE, Route: ORAL, Dose: 0, 300, 1000, 3000 PPM IN DIET FOR THE DURATION OF STUDY (STUDY DURATION: 101 WK), Dose: 0, 300, 1000, 3000 PPM IN DIET FOR THE DURATION OF STUDY (STUDY DURATION: 101 WK)); “active; positive” (Species: RAT, Route: ORAL, Tumor Site: Type of Lesion: BILE DUCT); “equivocal” (Species: RAT, Strain/Sex: F344/FEMALE, Route: GAVAGE, Dose: 0, 25, 50, 100 MG/KG BW IN CORN OIL 1/D 5 D/WK FOR 103 WK (STUDY DURATION: 103 WK), Dose: 0, 25, 50, 100 MG/KG BW IN CORN OIL 1/D 5 D/WK FOR 103 WK (STUDY DURATION: 103 WK), Tumor Site: Type of Lesion: KIDNEY (RENAL TUBULE): ADENOMA). For the same compound, the carcinogen call was “active; positive” (Species: RAT, Strain/Sex: F344/MALE, Route: GAVAGE, Dose: 0, 25, 50, 100 MG/KG BW IN CORN OIL 1/D 5 D/WK FOR 103 WK (STUDY DURATION: 103 WK), Dose: 0, 25, 50, 100 MG/KG BW IN CORN OIL 1/D 5 D/WK FOR 103 WK (STUDY DURATION: 103 WK), Tumor Site: Type of Lesion: KIDNEY (RENAL TUBULE): ADENOMA); “active; positive” (Species: RAT, Strain/Sex: SPRAGUE-DAWLEY/FEMALE, Route: ORAL, Dose: 0, 333, 1000, 2000 PPM IN DIET FOR DURATION OF STUDY ADMINISTERED TO RATS EXPOSED TO THE SAME DOSES DURING GESTATION AND, Dose: 0, 333, 1000, 2000 PPM IN DIET FOR DURATION OF STUDY ADMINISTERED TO RATS EXPOSED TO THE SAME DOSES DURING GESTATION AND, Tumor Site: Type of Lesion: LIVER: CHOLANGIOCARCINOMA, PARENCHYMAL TUMORS); “active; positive” (Species: RAT, Strain/Sex: SPRAGUE-DAWLEY/MALE, Route: ORAL, Dose: 0, 333, 1000, 2000 PPM IN DIET FOR DURATION OF STUDY ADMINISTERED TO RATS EXPOSED TO THE SAME DOSES DURING GESTATION AND, Dose: 0, 333, 1000, 2000 PPM IN DIET FOR DURATION OF STUDY ADMINISTERED TO RATS EXPOSED TO THE SAME DOSES DURING GESTATION AND, Tumor Site: Type of Lesion: LIVER: CHOLANGIOCARCINOMA, PARENCHYMAL TUMORS).
For `CCCCC(CC)COC(=O)c1ccc(C(=O)OCC(CC)CCCC)cc1` (stereo unspecified), the carcinogen call (Species: Rat, Strain/Sex: Fischer 344/Female, Route: Oral, Dose: 0, 1500, 6000, 12,000 ppm in diet for 104 wk (average daily dose 0, 102, 418, 901 mg/kg/day), Dose: 0, 1500, 6000, 12,000 ppm in diet for 104 wk (average daily dose 0, 102, 418, 901 mg/kg/day)) was “inactive; negative” and the carcinogen call (Species: Rat, Strain/Sex: Fischer 344/Male, Route: Oral, Dose: 0, 1500, 6000, 12,000 ppm in diet for 104 wk (average daily dose 0, 79, 324, 666 mg/kg/day), Dose: 0, 1500, 6000, 12,000 ppm in diet for 104 wk (average daily dose 0, 79, 324, 666 mg/kg/day)) was “inactive; negative”.
`COc1cc2c(c3oc(=O)c4c(c13)CCC4=O)[C@@H]1CCO[C@@H]1O2`: the carcinogen call reads like this: (Species: HUMAN, Route: ORAL, Tumor Site: Type of Lesion: LIVER) “active; positive”; (Species: RAT, Route: ORAL, Tumor Site: Type of Lesion: LIVER) “active; positive”.
For the compound `O[C@@H]1[C@@H]2O[C@@H]2c2c(ccc3c2ccc2ccccc23)[C@H]1O`, the carcinogen call is “inactive; negative” (Species: MOUSE, Strain/Sex: ICR/FEMALE, Route: INTRAPERITONEAL, Dose: 0, 8 NMOL IN 5 µL DMSO ON D 1, 16 NMOL IN 10 µL ON D 8 AND 32 NMOL IN 20 µL ON D 15 OF LIFE (STUDY DURATION: 35 WK)); “active; positive” (Species: MOUSE, Strain/Sex: ICR/FEMALE, Route: INTRAPERITONEAL, Dose: 0, 500 NMOL (TOTAL DOSE) ADMINISTERED IN DOSES OF 1/7, 2/7, AND 4/7 ON DAYS 1, 7, AND 15 OF LIFE, RESPECTIVELY (STUDY DU, Tumor Site: Type of Lesion: LUNG: TUMOR); “inactive; negative” (Species: MOUSE, Strain/Sex: ICR/MALE, Route: INTRAPERITONEAL, Dose: 0, 8 NMOL IN 5 µL DMSO ON D 1, 16 NMOL IN 10 µL ON D 8 AND 32 NMOL IN 20 µL ON D 15 OF LIFE (STUDY DURATION: 35 WK)); “active; positive” (Species: MOUSE, Strain/Sex: ICR/MALE, Route: INTRAPERITONEAL, Dose: 0, 500 NMOL (TOTAL DOSE) ADMINISTERED IN DOSES OF 1/7, 2/7, AND 4/7 ON DAYS 1, 7 AND 15 OF LIFE , RESPECTIVELY (STUDY DU, Tumor Site: Type of Lesion: LUNG: TUMOR).
Regarding `CN(C)CCN(Cc1ccccc1)c1ccccn1`, the carcinogen call is, setting by setting: (Species: RAT, Strain/Sex: SPRAGUE-DAWLEY/FEMALE, Route: ORAL, Dose: 0, 500, 1000 PPM IN DRINKING WATER 5D/WK FOR LIFE (STUDY DURATION: 493-754 D), Dose: 0, 500, 1000 PPM IN DRINKING WATER 5D/WK FOR LIFE (STUDY DURATION: 493-754 D)) “inactive; negative”; (Species: RAT, Strain/Sex: SPRAGUE-DAWLEY/MALE, Route: ORAL, Dose: 0, 500, 1000 PPM IN DRINKING WATER 5D/WK FOR LIFE (STUDY DURATION: 529-600 D), Dose: 0, 500, 1000 PPM IN DRINKING WATER 5D/WK FOR LIFE (STUDY DURATION: 529-600 D)) “inactive; negative”.
For `c1ccc2c(c1)cc1ccc3c4ccccc4cc4ccc2c1c43`, the carcinogen call is, setting by setting: (Species: MOUSE, Route: DERMAL, Tumor Site: Type of Lesion: INTEGUMENTARY SYSTEM (SKIN)) “active; positive”; (Species: MOUSE, Route: SUBCUTANEOUS, Tumor Site: Type of Lesion: INJECTION SITE) “active; positive”.
For `C[C@]12CC[C@@H]3c4ccc(O)cc4CC[C@H]3[C@@H]1CC[C@H]2O`, for the setting “Species: HAMSTER, Strain/Sex: SYRIAN/MALE, Route: SUBCUTANEOUS IMPLANT, Dose: 0, 20 MG IN PELLETS IMPLANTED EVERY 2.5 MO FOR 9 MO (STUDY DURATION: 9 MO)”, the carcinogen call was “inactive; negative”.
On to `Nc1ccc(Cl)c(N)c1`, for which the carcinogen call (Species: MOUSE, Strain/Sex: B6C3F1/FEMALE, Route: ORAL, Dose: 0, 0.7, 1.4% OF DIET, TWA, Dose: 0, 0.7, 1.4% OF DIET, TWA, Tumor Site: Type of Lesion: LIVER: HEPATOCELLULAR ADENOMA OR HEPATOCELLULAR CARCINOMA) is “active; positive”; the carcinogen call (Species: MOUSE, Strain/Sex: B6C3F1/MALE, Route: ORAL, Dose: 0, 0.7, 1.4% OF DIET, TWA, Dose: 0, 0.7, 1.4% OF DIET, TWA) was “inactive; negative”; the carcinogen call (Species: RAT, Strain/Sex: F344/FEMALE, Route: ORAL, Dose: 0, 0.2, 0.4% OF DIET, Dose: 0, 0.2, 0.4% OF DIET) was “inactive; negative”; the carcinogen call (Species: RAT, Strain/Sex: F344/MALE, Route: ORAL, Dose: 0, 0.2, 0.4% OF DIET, Dose: 0, 0.2, 0.4% OF DIET, Tumor Site: Type of Lesion: ADRENAL GLAND: PHEOCHROMOCYTOMA) is “active; positive”.

Values taken from PubChem BioAssay AID1259411 (Chemical Carcinogenesis Research Information System (CCRIS), 2018).
